From article PMC7641324, “Small-molecule sensitization of RecBCD helicase–nuclease to a Chi hotspot-activated state” (Nucleic Acids Research, 2020)

Molecular target: T1, RecBCD enzyme (RecB subunit) (Escherichia coli, UniProt P08394)
T1 construct: RecBCD holoenzyme (330 kDa, three subunits); with RecC and RecD
Test: RecBCD nuclease assay with [3H] phage T7 DNA, […] ATP; unaffected by Triton X-100
Type: biochemical

T1 sequence (P08394 2-1180): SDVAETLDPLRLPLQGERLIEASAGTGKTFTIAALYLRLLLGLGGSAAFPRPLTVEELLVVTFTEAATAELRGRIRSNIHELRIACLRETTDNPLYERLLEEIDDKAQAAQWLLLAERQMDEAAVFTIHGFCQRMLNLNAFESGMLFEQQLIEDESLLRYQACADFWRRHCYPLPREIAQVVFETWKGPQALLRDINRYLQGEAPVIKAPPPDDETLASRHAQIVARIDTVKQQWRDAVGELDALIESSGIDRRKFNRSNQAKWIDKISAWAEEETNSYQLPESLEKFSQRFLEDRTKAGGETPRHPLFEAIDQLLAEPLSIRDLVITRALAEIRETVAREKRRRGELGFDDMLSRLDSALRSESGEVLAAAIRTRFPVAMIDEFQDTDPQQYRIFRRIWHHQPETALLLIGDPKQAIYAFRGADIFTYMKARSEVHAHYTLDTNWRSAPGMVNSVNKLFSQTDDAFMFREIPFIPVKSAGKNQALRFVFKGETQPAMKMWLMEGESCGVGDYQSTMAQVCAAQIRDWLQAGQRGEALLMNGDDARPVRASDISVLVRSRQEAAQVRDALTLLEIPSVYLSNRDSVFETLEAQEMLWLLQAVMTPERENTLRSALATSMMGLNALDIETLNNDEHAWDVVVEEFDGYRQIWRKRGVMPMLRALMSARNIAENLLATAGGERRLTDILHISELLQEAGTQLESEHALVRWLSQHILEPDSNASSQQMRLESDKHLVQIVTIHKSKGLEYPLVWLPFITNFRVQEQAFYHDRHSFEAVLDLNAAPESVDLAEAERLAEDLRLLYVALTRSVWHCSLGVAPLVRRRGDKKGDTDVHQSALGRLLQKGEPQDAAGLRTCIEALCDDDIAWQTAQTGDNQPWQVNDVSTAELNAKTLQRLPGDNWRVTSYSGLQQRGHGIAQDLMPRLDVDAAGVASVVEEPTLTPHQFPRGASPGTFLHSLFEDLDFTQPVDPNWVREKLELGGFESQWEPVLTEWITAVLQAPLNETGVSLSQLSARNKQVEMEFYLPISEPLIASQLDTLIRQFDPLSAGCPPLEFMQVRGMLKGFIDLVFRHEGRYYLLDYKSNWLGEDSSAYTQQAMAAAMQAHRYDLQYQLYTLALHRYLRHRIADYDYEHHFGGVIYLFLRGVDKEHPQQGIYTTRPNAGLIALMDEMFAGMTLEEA
T1 sequence (P07648 whole entry, further chain): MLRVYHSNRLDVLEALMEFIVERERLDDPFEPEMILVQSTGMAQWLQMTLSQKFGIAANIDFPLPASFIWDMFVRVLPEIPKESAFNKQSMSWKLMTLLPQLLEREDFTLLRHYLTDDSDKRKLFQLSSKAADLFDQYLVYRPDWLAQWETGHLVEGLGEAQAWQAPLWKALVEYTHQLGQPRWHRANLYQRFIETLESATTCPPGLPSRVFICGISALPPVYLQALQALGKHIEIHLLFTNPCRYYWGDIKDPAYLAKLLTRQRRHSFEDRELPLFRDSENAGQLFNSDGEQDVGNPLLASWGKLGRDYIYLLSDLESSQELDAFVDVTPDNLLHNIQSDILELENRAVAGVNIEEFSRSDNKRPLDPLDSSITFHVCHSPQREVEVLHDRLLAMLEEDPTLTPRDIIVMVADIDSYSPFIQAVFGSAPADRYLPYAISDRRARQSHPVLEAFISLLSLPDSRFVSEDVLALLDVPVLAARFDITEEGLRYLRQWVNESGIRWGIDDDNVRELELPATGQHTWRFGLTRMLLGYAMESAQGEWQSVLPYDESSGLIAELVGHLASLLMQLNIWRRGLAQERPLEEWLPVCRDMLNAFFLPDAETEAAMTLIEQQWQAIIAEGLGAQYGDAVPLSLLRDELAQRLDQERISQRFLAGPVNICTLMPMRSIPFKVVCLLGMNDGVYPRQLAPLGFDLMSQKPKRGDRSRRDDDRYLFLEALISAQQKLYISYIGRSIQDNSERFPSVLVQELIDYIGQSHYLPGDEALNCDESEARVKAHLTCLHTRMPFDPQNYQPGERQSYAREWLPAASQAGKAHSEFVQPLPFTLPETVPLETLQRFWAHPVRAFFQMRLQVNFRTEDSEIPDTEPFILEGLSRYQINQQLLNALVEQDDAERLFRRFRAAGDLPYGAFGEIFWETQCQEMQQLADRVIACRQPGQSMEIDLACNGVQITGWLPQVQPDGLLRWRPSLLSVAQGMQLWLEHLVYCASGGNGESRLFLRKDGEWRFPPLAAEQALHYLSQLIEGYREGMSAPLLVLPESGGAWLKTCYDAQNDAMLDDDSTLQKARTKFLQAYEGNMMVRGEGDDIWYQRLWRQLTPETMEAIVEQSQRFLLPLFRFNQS
T1 sequence (P04993 whole entry, further chain): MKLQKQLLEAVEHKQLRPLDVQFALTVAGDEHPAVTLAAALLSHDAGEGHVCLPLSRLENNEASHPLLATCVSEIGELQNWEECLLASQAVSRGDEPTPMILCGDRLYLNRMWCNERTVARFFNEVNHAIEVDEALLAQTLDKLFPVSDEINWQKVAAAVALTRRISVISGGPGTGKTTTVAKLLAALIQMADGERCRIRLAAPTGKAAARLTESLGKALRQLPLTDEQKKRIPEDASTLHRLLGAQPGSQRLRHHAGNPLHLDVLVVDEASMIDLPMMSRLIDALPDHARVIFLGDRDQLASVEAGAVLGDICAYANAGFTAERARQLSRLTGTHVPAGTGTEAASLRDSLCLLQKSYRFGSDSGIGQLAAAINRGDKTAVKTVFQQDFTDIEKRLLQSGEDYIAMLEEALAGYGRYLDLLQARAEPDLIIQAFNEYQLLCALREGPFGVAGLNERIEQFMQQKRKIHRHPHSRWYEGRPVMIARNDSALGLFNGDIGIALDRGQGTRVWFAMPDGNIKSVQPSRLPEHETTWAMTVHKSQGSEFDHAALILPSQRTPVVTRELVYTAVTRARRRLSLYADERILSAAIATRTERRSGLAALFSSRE

SMILES: CCC(Sc1nnc2n(CCOc3ccccc3Cl)c3ccccc3n12)C(=O)O (stereo not shown) [NSAC1003, 2-({7-[2-(2-chlorophenoxy)ethyl]-2,4,5,7-tetraazatricyclo[6.4.0.0^2,^6]dodeca-1(8),3,5,9,11-pentaen-3-yl}sulfanyl)butanoic acid]
- IC50: 6.3 ± 0.3 µM
